Legend:
[1] = target: T1, Human CD73 (amino acid residues 27-549) (Homo sapiens, UniProt P21589); test: CD73 enzymatic assay (luciferase-based indirect assay, CellTiter-Glo); type: biochemical; conditions: 0.4 nM CD73, 150 μM AMP, 1 hour at room temperature
T1 construct: Human CD73 (amino acid residues 27-549); His tag (N); made in house; host or cells: E. coli
T1 sequence (P21589 27-549): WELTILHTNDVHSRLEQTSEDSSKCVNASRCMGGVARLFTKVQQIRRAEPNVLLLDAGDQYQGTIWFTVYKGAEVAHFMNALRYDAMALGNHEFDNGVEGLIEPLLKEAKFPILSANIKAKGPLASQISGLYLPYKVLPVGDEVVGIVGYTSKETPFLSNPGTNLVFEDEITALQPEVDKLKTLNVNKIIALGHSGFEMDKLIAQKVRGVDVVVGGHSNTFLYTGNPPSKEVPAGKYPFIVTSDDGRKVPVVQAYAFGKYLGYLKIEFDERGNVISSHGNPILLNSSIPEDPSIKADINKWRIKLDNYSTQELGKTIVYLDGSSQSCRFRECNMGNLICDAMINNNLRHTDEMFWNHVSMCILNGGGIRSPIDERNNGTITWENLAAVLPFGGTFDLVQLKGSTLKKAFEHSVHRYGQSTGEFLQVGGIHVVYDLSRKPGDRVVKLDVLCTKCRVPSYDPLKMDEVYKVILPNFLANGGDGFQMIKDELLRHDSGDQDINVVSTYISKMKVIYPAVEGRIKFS
Experimental: CD73 enzymatic activity was measured in a luciferase-based indirect assay using CellTiter-Glo® system from Promega. The luciferase reaction in the presence of ATP is inhibited by AMP, a primary substrate of CD73. Addition of CD73 enzyme to the reaction converts AMP to adenosine, and release the inhibition, producing a luminescent signal. Inhibition of CD73 leads to the decrease of this luminescent signal.
Human CD73 (amino acid residues 27-549) with N-Terminal His tag was purified in E. coli. All the assay components were prepared in 50 mM HEPEs buffer (pH 7.4) with 0.01% Tween-20. The CD73 enzymatic assay was performed using 0.4 nM CD73 and 150 μM AMP. 9.5 μL of CD73 protein and 9.5 μL of AMP were added to the wells of a 384 well plate containing lpL of various concentrations of test compound or DMSO vehicle and incubated for 1 hour at room temperature. 16 wells containing CD73, AMP and 5% DMSO served as high control. 16 wells containing AMP and 5% DMSO served as low control. Enzymatic reaction was stopped and AMP level was measured indirectly by adding 5 μL of CellTiter-Glo® 2.0 reagent and 5 μL of ATP with a final concentration of 1 μM. Following incubation of the plate at room temperature for 30 minutes, luminescent signal was read on a Tecan plate reader. The percentage inhibition at individual concentrations relative to high and low controls was calculated. The data were analyzed by using nonlinear regression to generate IC50 values.

[2] = target: T2, human CD73 (Homo sapiens, UniProt P21589); test: Inhibitor activity against CD73 in cell based assay (CD73 expressing CHO-K1 cells); conditions: CHO-K1 cells expressing human CD73, 150 μM AMP, 4 hours of incubation; read-out: CHO-K1 CELL_VARIANT: CD73 IC50
T2 construct: expressed in transfected cells
T2 sequence (P21589 27-549): T1 sequence (P21589 27-549)
Experimental: Determine Inhibitor Activity Against CD73 in Cell Based Assay
CD73 expressing CHO-K1 cell clones were generated upon stable transfection of a plasmid expressing human CD73 under the control of CMV promoter. Cells were selected in Ham's F-12K (Kaighn's) media supplemented with 10% fetal bovine serum and 1 mg/ml G418 at 37° C. in a humidified incubator supplied with 5% CO2. The assays were performed as follows. Cells were seeded in a 96 well plate in 50 μL of culture media at a density of 1×10^4 per well. Compound at a maximal concentration of 5 mM was serially diluted 1:3 in DMSO for a total of 8 point titration. A 2 μL aliquot of each dilution point was added to […] culture media and 25 µL was added to each well, providing 10 μM compound at the maximum concentration point. AMP was diluted in culture media and 25 μL was added to each well with a final concentration of 150 μM. 4 wells containing 0.2% DMSO treated cells and AMP served as high controls and 4 wells containing media only with 0.2% DMSO and AMP served as low controls. After 4 hours of incubation, 20 μL of the supernatant was transferred to a 384 well plate. AMP level in supernatant was measured indirectly by adding 5 μL of CellTiter-Glo® 2.0 reagent and 5 μL of ATP with a final concentration of 1 μM. Following incubation of plate at room temperature for 30 minutes, luminescent signal was read on a Tecan plate reader. The percentage inhibition at individual concentrations relative to high and low controls was calculated. The data were analyzed by using nonlinear regression to generate ICso values.

Structure (SMILES) | IC50 [1] | IC50 [2]
Cc1nn(C2(CC#N)COC2)c(C)c1-c1ccnc(O[C@@H]2CCN(c3cn[nH]c(=O)c3Cl)C2)c1 [P-0033, (R)-2-(3-(4-(2-((1-(5-chloro-6-oxo-1,6-dihydropyridazin-4-yl)pyrrolidin-3-yl)oxy)pyridin-4-yl)-3,5-dimethyl-1H-pyrazol-1-yl)oxetan-3-yl)acetonitrile] | 0.001 to 10 µM | 0.001 to 10 µM
Cc1nn(C)c(C)c1-c1cc(O[C@@H]2CCN(c3cn[nH]c(=O)c3Cl)C2)ncn1 [P-0181, (R)-4-chloro-5-(3-((6-(1,3,5-trimethyl-1H-pyrazol-4-yl)pyrimidin-4-yl)oxy)pyrrolidm-1-yl)pyridazin-3(2H)-one] | 0.001 to 10 µM | 0.001 to 10 µM
Cc1nn(CC2(C)COC2)c(C)c1-c1ccnc(O[C@@H]2CCN(c3cn[nH]c(=O)c3Cl)C2)c1 [P-0095, (R)-4-chloro-5-(3-((4-(3,5-dimethyl-1-((3-methyloxetan-3-yl)methyl)-1H-pyrazol-4-yl)pyridin-2-yl)oxy)pyrrolidin-1-yl)pyridazin-3(2H)-one] | 0.001 to 10 µM | 0.001 to 10 µM
O=c1[nH]ncc(N2CC[C@@H](Oc3cc(-c4ccc(C(F)(F)F)nc4)ccn3)C2)c1Cl [P-0231, (R)-4-chloro-5-(3-((6-(trifluoromethyl)-[3,4′-bipyridin]-2′-yl)oxy)pyrrolidin-1-yl)pyridazin-3(2H)-one] | 0.001 to 10 µM | 0.001 to 10 µM
Cc1nn(C)c(C)c1-c1cc(O[C@@H]2CCN(c3cn[nH]c(=O)c3Cl)C2)ccn1 [P-0137, (R)-4-chloro-5-(3-((2-(1,3,5-trimethyl-1H-pyrazol-4-yl)pyridin-4-yl)oxy)pyrrolidin-1-yl)pyridazin-3(2H)-one] | 0.001 to 10 µM | 0.001 to 10 µM
N#CC1CCC(c2ccnc(O[C@@H]3CCN(c4cn[nH]c(=O)c4Cl)C3)c2)CC1 (stereo partly drawn) [P-0091, (R)-4-(2-((1-(5-chloro-6-oxo-1,6-dihydropyridazin-4-yl)pyrrolidin-3-yl)oxy)pyridin-4-yl)cyclohexane-1-carbonitrile] | 0.001 to 10 µM | 0.001 to 10 µM
Cc1nn(C2COC2)c(C)c1-c1ccnc(O[C@@H]2CCN(c3cn[nH]c(=O)c3Cl)C2)c1 [P-0070, (R)-4-chloro-5-(3-((4-(3,5-dimethyl-1-(oxetan-3-yl)-1H-pyrazol-4-yl)pyridin-2-yl)oxy)pyrrolidin-1-yl)pyridazin-3(2H)-one] | 0.001 to 10 µM | 0.001 to 10 µM
COCc1noc(C)c1-c1ccnc(O[C@@H]2CCN(c3cn[nH]c(=O)c3Cl)C2)c1 [P-0150, (R)-4-chloro-5-(3-((4-(3-(methoxymethyl)-5-methylisoxazol-4-yl)pyridin-2-yl)oxy)pyrrolidin-1-yl)pyridazin-3(2H)-one] | 0.001 to 10 µM | 0.001 to 10 µM
Cc1noc(C)c1-c1cc(O[C@H]2CN(c3cnn(CCO)c(=O)c3Cl)C[C@@H]2F)ncc1F [P-0132, 4-chloro-5-((3S,4S)-3-((4-(3,5-dimethylisoxazol-4-yl)-5-fluoropyridin-2-yl)oxy)-4-fluoropyrrolidin-1-yl)-2-(2-hydroxyethyl)pyridazin-3(2H)-one] | 0.001 to 10 µM | 0.001 to 10 µM
CCCCNS(=O)(=O)c1ccc(-c2ccnc(O[C@@H]3CCN(c4cn[nH]c(=O)c4Cl)C3)c2)cc1 [P-0242, (R)-N-butyl-4-(2-((1-(5-chloro-6-oxo-1,6-dihydropyridazin-4-yl)pyrrolidin-3-yl)oxy)pyridin-4-yl)benzenesulfonamide] | 0.001 to 10 µM | 0.001 to 10 µM
Cc1nn(C2CC2)c(C)c1-c1ccnc(O[C@@H]2CCN(c3cn[nH]c(=O)c3Cl)C2)c1 [P-0022, (R)-4-chloro-5-(3-((4-(1-cyclopropyl-3,5-dimethyl-1H-pyrazol-4-yl)pyridin-2-yl)oxy)pyrrolidin-1-yl)pyridazin-3(2H)-one] | 0.001 to 10 µM | 0.001 to 10 µM
Cc1cc(S(=O)(=O)NC2CC2)ccc1-c1cc(F)nc(O[C@@H]2CCN(c3cn[nH]c(=O)c3Cl)C2)c1 [P-0217, (R)-4-(2-((1-(5-chloro-6-oxo-1,6-dihydropyridazin-4-yl)pyrrolidin-3-yl)oxy)-6-fluoropyridin-4-yl)-N-cyclopropyl-3-methylbenzenesulfonamide] | 0.001 to 10 µM | 0.001 to 10 µM
COCc1noc(C)c1-c1cc(O[C@@H]2CCN(c3cn[nH]c(=O)c3Cl)C2)ncn1 [P-0125, (R)-4-chloro-5-(3-((6-(3-(methoxymethyl)-5-methylisoxazol-4-yl)pyrimidin-4-yl)oxy)pyrrolidin-1-yl)pyridazin-3(2H)-one] | 0.001 to 10 µM | 0.001 to 10 µM
Cc1nn(C2CCC2)c(C)c1-c1ccnc(O[C@@H]2CCN(c3cn[nH]c(=O)c3Cl)C2)c1 [P-0026, (R)-4-chloro-5-(3-((4-(1-cyclobutyl-3,5-dimethyl-1H-pyrazol-4-yl)pyridin-2-yl)oxy)pyrrolidin-1-yl)pyridazin-3(2H)-one] | 0.001 to 10 µM | 0.001 to 10 µM
O=c1[nH]ncc(N2CC[C@@H](Oc3cc(-c4ccc(S(=O)(=O)NC5CC5)cc4)c(F)cn3)C2)c1Cl [P-0238, (R)-4-(2-((1-(5-chloro-6-oxo-1,6-dihydropyridazin-4-yl)pyrrolidin-3-yl)oxy)-5-fluoropyridin-4-yl)-N-cyclopropylbenzenesulfonamide] | 0.001 to 10 µM | 0.001 to 10 µM
COc1ccc2c(c1)cc(-c1ccnc(O[C@@H]3CCN(c4cnn(CCO)c(=O)c4Cl)C3)c1)n2C [P-0106, (R)-4-chloro-2-(2-hydroxyethyl)-5-(3-((4-(5-methoxy-1-methyl-1H-indol-2-yl)pyridin-2-yl)oxy)pyrrolidin-1-yl)pyridazin-3(2H)-one] | 0.001 to 10 µM | 0.001 to 10 µM
O=c1[nH]ncc(N2CC[C@@H](Oc3cc(N4CC5CCC(C4)N5)ccn3)C2)c1Cl [P-0013, 5-((3R)-3-((4-(3,8-diazabicyclo[3.2.1]octan-3-yl)pyridin-2-yl)oxy)pyrrolidin-1-yl)-4-chloropyridazin-3(2H)-one] | 0.001 to 10 µM | 0.001 to 10 µM
CCCNS(=O)(=O)N1CCN(c2ccnc(O[C@@H]3CCN(c4cn[nH]c(=O)c4Cl)C3)c2)CC1 [P-0226, (R)-4-(2-((1-(5-chloro-6-oxo-1,6-dihydropyridazin-4-yl)pyrrolidin-3-yl)oxy)pyridin-4-yl)-N-propylpiperazine-1-sulfonamide] | 0.001 to 10 µM | 0.001 to 10 µM
Cc1c(-c2ccnc(O[C@@H]3CCN(c4cn[nH]c(=O)c4Cl)C3)c2)cnn1C [P-0209, (R)-4-chloro-5-(3-((4-(1,5-dimethyl-1H-pyrazol-4-yl)pyridin-2-yl)oxy)pyrrolidin-1-yl)pyridazin-3(2H)-one] | 0.001 to 10 µM | 0.001 to 10 µM
O=c1[nH]ncc(N2CC[C@@H](Oc3cc(C4CCNC4)ccn3)C2)c1Cl (stereo partly drawn) [P-0018, 4-chloro-5-((3R)-3-((4-(pyrrolidin-3-yl)pyridin-2-yl)oxy)pyrrolidin-1-yl)pyridazin-3(2H)-one] | 0.001 to 10 µM | 0.001 to 10 µM
N#Cc1cc(O[C@@H]2CCN(c3cn[nH]c(=O)c3Cl)C2)nc(N2CCCC2)c1 [P-0253, (R)-2-((1-(5-chloro-6-oxo-1,6-dihydropyridazin-4-yl)pyrrolidin-3-yl)oxy)-6-(pyrrolidin-1-yl)isonicotinonitrile] | 0.001 to 10 µM | 10 to 100 µM
